Experimental findings from patent publication US20160051513A1, “USE OF 4-BENZAMIDE IN THE TREATMENT OF NEUROPATHIC PAIN” (LES LABORATOIRES SERVIER, priority 2013, published 2016) are described below.

Where a name gives a salt, the structure may show the parent alone.

Data set [1] concerns model of diabetic neuropathy caused by streptozocin (STZ). Description: Mechanical hyperalgesia (paw pressure vocalisation threshold) in model of diabetic neuropathy caused by streptozocin. The data set is classed as in vivo, rat. To be noted: for effect of reference treatments compared with the compound: STZ rats. The method, then:
The effects of 4-{3-[cis-hexahydrocyclopenta[c]pyrrol-2(1H)-yl]propoxy}benzamide and of two reference treatments for neuropathic pain (gabapentin and pregabalin) were studied in the rat, in the model of diabetic neuropathy caused by streptozocin (STZ).
In rats, administration of high-dose STZ (>35 mg/kg) causes diabetes which is similar to hyperglycaemic diabetes mellitus in humans. This is brought about by histopathological changes in the beta cells of islets of Langerhans and is associated with neuropathic pain. This pain is made manifest especially by mechanical hyperalgesia which can be attested by the lowering of the animal's vocalisation threshold when an increasing pressure is applied to the paw (Courteix et al., Pain, 1993, 53(1):81-8). During the test, a weight is placed on the rat's paw; its weight (in grams) increases until the animal vocalises. In this experiment, 21 days after the intraperitoneal injection of STZ (72 mg/kg), the rats develop diabetes characterised especially by hyperglycaemia (controlled during the experiment by injection of insulin) and associated with mechanical hyperalgesia. Indeed, the vocalisation threshold of the rats is lowered by half compared to the threshold which those animals had prior to injection of STZ (FIG. 1).

The test system of data set [2] is anxiety associated with the neuropathic pain caused by chronic constriction (CCI) of the sciatic nerve. Nature of the data set: Anxiety associated with neuropathic pain caused by CCI (time in open parts of cylindrical corridor). The data set is classed as in vivo. Particulars: CCI rat, 4 weeks after constriction. The method, then: The effects of 4-{3-[cis-hexahydrocyclopenta[c]pyrrol-2(1H)-yl]propoxy}benzamide were studied on the anxiety associated with the neuropathic pain caused by chronic constriction (CCI) of the sciatic nerve in the rat.
In this study, the rats are placed for 5 minutes in a cylindrical corridor which has two parts closed off by a wall and two opposite parts which are open. The test creates a conflict between the rodent's natural desire to explore and its fear of open spaces which make it vulnerable to predators. Anxiety is measured in this test by the time spent by the rat in exploring the open parts of the cylindrical corridor (Bleickardt et al. Psychopharmacology (Berl), 2009, 202(4):711-8; Alba-Delgado et al. Biol. Psychiatry, 2013, 73(1):54-62).

The subject of data set [3] is depression associated with the neuropathic pain caused by CCI. Description: Depression associated with neuropathic pain caused by CCI (duration of immobility in cylinder filled with water). The data set is classed as in vivo. To be noted: CCI rat, 4 weeks after constriction. The method, then: The effects of 4-{3-[cis-hexahydrocyclopenta[c]pyrrol-2(1H)-yl]propoxy}benzamide were studied on the depression associated with the neuropathic pain caused by CCI in the rat. In this study, the rat is placed for 5 minutes in a cylinder filled with water, out of which it is unable to climb. After struggling in the water, the animal becomes immobile, reflecting “behavioural despair”, which occurs when the animal realises that it will not be able to escape. Depressive behaviour is measured in this test by the duration of immobility.

Data set [4] can be described thus: Clinical acceptability profile. The class given is in vivo, human.
Data set [5] deals with mechanical hyperalgesia caused by chronic constriction (CCI) of the sciatic nerve. Description: Mechanical hyperalgesia (vocalisation threshold) in model of neuropathy caused by chronic constriction (CCI) of the sciatic nerve. The class given is in vivo, rat. Particulars: for reversal of the hyperalgesia (vocalisation threshold versus before the procedure): after 4 days of chronic treatment. The source says:
The effects of 4-{3-[cis-hexahydrocyclopenta[c]pyrrol-2(1H)-yl]propoxy}benzamide and of gabapentin were studied on the mechanical hyperalgesia caused in the rat by chronic constriction (CCI) of the sciatic nerve.
This model of post-traumatic neuropathic pain closely reproduces the symptoms of neuropathic pain which can be observed in humans, namely mechanical and thermal hyperalgesia, mechanical allodynia and spontaneous pain (Bennett and Xie, Pain, 1988, 33(1):87-107; Munger et al., Exp Neurol, 1992, 118(2):204-14; Kim et al., Brain Res, 1997, 113(2):200-6.).

In data set [6] the test system is thermal allodynia after administration of oxaliplatin (OXA). Nature of the data set: Thermal (cold) allodynia, tail withdrawal time in cold bath at 10° C, model of neuropathy caused by oxaliplatin. To be noted: for reversal of the allodynia (tail withdrawal time versus before the procedure): oxaliplatin 6 mg/kg i.p. The data set is classed as in vivo, rat. The source says:
The effects of 4-{3-[cis-hexahydrocyclopenta[c]pyrrol-2(1H)-yl]propoxy}benzamide and of two reference treatments for neuropathic pain (gabapentin and pregabalin) were studied on the thermal allodynia which occurs in rats after administration of oxaliplatin (OXA). Oxaliplatin is a synthetic anticancer medication from the group of agents derived from platinum, especially used in the treatment of cancers of the colon and rectum.
In the rat, acute administration of oxaliplatin specifically causes cold hyperalgesia and allodynia in the subsequent 24 hours, which lasts for several days. This animal model therefore closely mimics the painful symptoms observed in humans after infusion of oxaliplatin, especially the rapid appearance of intense sensory disturbances caused by cold, of the hyperalgesic and allodynic type (Ling et al. Toxicology. 2007; 234(3):176-84).
The results of this study confirm that, 36 hours after acute intraperitoneal administration of oxaliplatin (6 mg/kg), the rats develop cold allodynia, reflected by very rapid withdrawal of their tail when it is placed in a cold bath at 10° C. Indeed, this withdrawal time is, on average, half as long as that of the rats before administration of oxaliplatin (FIG. 3).

In data set [7] the test system is mechanical hyperalgesia caused by chronic constriction (CCI) of the sciatic nerve. Nature of the data set: Mechanical hyperalgesia (vocalisation threshold) in CCI model, compound and agomelatine on their own or in association. The data set is classed as in vivo, rat. Particulars: every day for 5 days, S 0.3 mg of base/kg per os, agomelatine 10 mg/kg i.p., alone or in association. As to the method: The effects of 4-{3-[cis-hexahydrocyclopenta[c]pyrrol-2(1H)-yl]propoxy}benzamide and agomelatine, administered on their own or in association, were studied on the mechanical hyperalgesia caused in the rat by chronic constriction (CCI) of the sciatic nerve (see Example B).
The vocalisation threshold was measured in the animals every day for 5 days, before and 45 minutes after the administration of 4-{3-[cis-hexahydrocyclopenta[c]pyrrol-2(1H)-yl]-propoxy}benzamide hydrochloride at a dose of 0.3 mg of base/kg per os (the compound being referred to as S in FIG. 4) and agomelatine at a dose of 10 mg/kg i.p., on their own or in association.

Consider `NC(=O)c1ccc(OCCCN2C[C@H]3CCC[C@H]3C2)cc1` [4-{3-[cis-hexahydrocyclopenta[c]pyrrol-2(1H)-yl]-propoxy}benzamide], for which, in data set [1] (administered every day for 5 days), the “beneficial effect on vocalisation threshold over time” value is recorded as “maintained over time”. Also, the “effects on the anxiety associated with the neuropathic pain” value in data set [2] was “beneficial effects”. In data set [3], the “effects on the depression associated with the neuropathic pain” value was “beneficial effects”. The acceptability profile result in data set [4] (healthy volunteers) and in data set [4] (patients suffering from Alzheimer's disease) was “good acceptability profile” each time.

As for `NC(=O)c1ccc(OCCCN2C[C@H]3CCC[C@H]3C2)cc1` [S, 4-{3-[cis-hexahydrocyclopenta[c]pyrrol-2(1H)-yl]propoxy}benzamide hydrochloride], the “value of the vocalisation threshold relative to non-diabetic animals” value in data set [1] (3 mg of base per kg per os, from the second day of administration) was “the same as that of non-diabetic animals”. In addition, the “vocalisation threshold compared to animals having been given the carrier” value in data set [1] (STZ 72 mg/kg i.p., 21 days after, 3 mg of base per kg per os) is “substantial and significant increase in the vocalisation threshold”. In addition, the “anti-hyperalgesic effect (vocalisation threshold)” value in data set [5] (12 days after CCI, 1 mg of base/kg per os) is reported as “significant anti-hyperalgesic effect”. Besides, the “reversal of the hyperalgesia (vocalisation threshold versus before the procedure)” value in data set [5] was “complete reversal of the hyperalgesia”. In addition, the “anti-allodynic effect (tail withdrawal time, cold bath 10° C)” value in data set [6] (36 hours after oxaliplatin 6 mg/kg i.p., 0.3 mg of base/kg per os, from D1, 1 hour after a single administration) is “significant anti-allodynic effect”. Also, in data set [6], the “reversal of the allodynia (tail withdrawal time versus before the procedure)” value is “complete reversal of the allodynia”. Also, in data set [7], the “anti-hyperalgesic effect (vocalisation threshold), chronic administration” value is recorded as “moderate anti-hyperalgesic effect”.

On to `COc1ccc2cccc(CCNC(C)=O)c2c1` [agomelatine, reference compound], for which the “anti-hyperalgesic effect (vocalisation threshold), chronic administration” value in data set [7] was “moderate and very inconstant anti-hyperalgesic effect”.

Consider `NCC1(CC(=O)O)CCCCC1` [gabapentin, reference compound], for which the “effect of reference treatments compared with the compound” value in data set [1] was “entirely comparable”. Moreover, the “reversal of the hyperalgesia (vocalisation threshold versus before the procedure)” value in data set [5] is recorded as “reversal is also observed”. For the same compound, the “reversal of the allodynia (tail withdrawal time versus before the procedure)” value in data set [6] is reported as “rapid reversal is also observed”.

In the case of `CC(C)C[C@H](CN)CC(=O)O` [pregabalin, reference compound], in data set [1], the “effect of reference treatments compared with the compound” value was “entirely comparable”. In addition, in data set [6], the “reversal of the allodynia (tail withdrawal time versus before the procedure)” value is listed as “rapid reversal is also observed”.
